Assay [1] concerns G12 (RNA, aptamer) GGGCAACUCCAAGCUAGAUCUACCGGUAAUUUAGGUCAUUGAGUGAACAGACGUCAAGCUAGUUGGGCUACUGGCUUCUAAAACACAGGUAAAAUG
The experiment in a line: fluorescence titration (intrinsic fluorescence). The note with it: K+ (20 mM KPO4), 100 mM NaCl, 10 mM MgCl2, pH 7.5.

For assay [2], the system named is tetracycline aptamer (SMFS construct) (RNA, aptamer) GGCAGGGCUGACGUAGUUGGAGUGGUGCGGGAGGAUAUAGUAAUCUGCAAAACAUACCAGAUGAAAAUCUGGAGAGGUGAAGAAUACGACCACCUGCAGAUUACUAUAUAGUGAGGGCAGAAUUCAGGUG
The experiment in a line: optical tweezers force ramp. To be noted: 250 mM KCl, 20 mM NaCl, 5 mM MgCl2; 40 mM HEPES pH 7.4, ~25 °C; P1 unfolding force increased.

Assay [3] concerns G12 no stem (SMFS construct) (RNA, aptamer) GGCAGGGCUGACGUAGUUGGAGUGGUGCGGGAGGGUCAUUGAGUGAACAGACGUCAAGCUAGUUGGGCUACUGGCUUAGUGAGGGCAGAAUUCAGGUG
The experiment in a line: optical tweezers passive mode, koff/kon. To be noted: 250 mM KCl, 20 mM NaCl, 5 mM MgCl2; 40 mM HEPES pH 7.4, ~25 °C; extrapolated to zero force; koff 6.0 s-1.

The subject of assay [4] is G12 (RNA, aptamer) GGGCAACUCCAAGCUAGAUCUACCGGUAAUUUAGGUCAUUGAGUGAACAGACGUCAAGCUAGUUGGGCUACUGGCUUCUAAAACACAGGUAAAAUG
The experiment in a line: fluorescence titration, Hill fit (ex 375 nm, em 530 nm). The note with it: 20 °C; 10 nM doxycycline.

In assay [5] the test system is G12 short stem (SMFS construct) (RNA, aptamer) GGCAGGGCUGACGUAGUUGGAGUGGUGCGGGAGGCCGUGGUCAUUGAGUGAACAGACGUCAAGCUAGUUGGGCUACUGGCUUCACGGAGUGAGGGCAGAAUUCAGGUG
The experiment in a line: optical tweezers force-jump, koff/kon. The note with it: 250 mM KCl, 20 mM NaCl, 5 mM MgCl2; 40 mM HEPES pH 7.4, ~25 °C; near-zero force; koff 0.0055 s-1, kon 0.42 s-1 µM-1.

Assay [6] deals with G12 long stem (SMFS construct) (RNA, aptamer) GGCAGGGCUGACGUAGUUGGAGUGGUGCGGGAGGGGAGUAAUCUCGGUCAUUGAGUGAACAGACGUCAAGCUAGUUGGGCUACUGGCUUCGAGAUUACUCCAGUGAGGGCAGAAUUCAGGUG
The experiment in a line: optical tweezers force ramp. The note with it: 250 mM KCl, 20 mM NaCl, 5 mM MgCl2; 40 mM HEPES pH 7.4, ~25 °C; intermediate I1 stabilised as in short stem.

What is called KD is a measure of binding affinity in units of concentration. Low readings indicate tighter binding, high ones weaker binding.

Consider `CN(C)[C@@H]1C(=O)C(C(N)=O)=C(O)[C@@]2(O)C(=O)C3=C(O)c4c(O)cccc4[C@@](C)(O)[C@H]3C[C@@H]12`, for which the values for the binding result in assay [1] (1 nM tetracycline) and in assay [2] were “no” and “yes”, respectively.

For the compound `CN(C)[C@@H]1C(O)=C(C(N)=O)C(=O)[C@@]2(O)C(O)=C3C(=O)c4c(O)ccc(Cl)c4[C@@](C)(O)[C@H]3C[C@@H]12`, the binding entry in assay [1] (5 nM 7-chloro-tetracycline) is “no”.

With `CN(C)[C@@H]1C(O)=C(C(N)=O)C(=O)[C@@]2(O)C(O)=C3C(=O)c4c(O)cccc4C[C@H]3C[C@@H]12`, the binding entry in assay [1] (5 nM sancycline) is listed as “no”.

In the case of `C[C@H]1c2cccc(O)c2C(=O)C2=C(O)[C@]3(O)C(=O)C(C(N)=O)=C(O)[C@@H](N(C)C)[C@@H]3[C@@H](O)[C@@H]21`, the figures for the “KD,0” value in assay [3] and in assay [5] were 3800 nM and 13.1 nM, respectively. Also, the KD in assay [4] is on record as 2.8 nM. The binding result in assay [6] is reported as “yes”.

As to `Cc1c2c(c(O)c3c(O)cccc13)C(=O)[C@]1(O)C(O)=C(C(N)=O)C(=O)[C@@H](N(C)C)[C@@H]1C2`, the binding result in assay [1] (20 nM anhydrotetracycline) is “no”.

On to `CN(C)c1ccc(O)c2c1C[C@H]1C[C@H]3[C@H](N(C)C)C(O)=C(C(N)=O)C(=O)[C@@]3(O)C(O)=C1C2=O`, for which, in assay [1] (20 nM minocycline), the binding entry was “no”.

(Values after article PMC13434769 (2026).)
